Data taken from PMC7356390, “Dehydrozingerone, a Curcumin Analog, as a Potential Anti-Prostate Cancer Inhibitor In Vitro and In Vivo” (Molecules, 2020).

What was measured:
[1] = tested on: cyclin D1 expression in PLS10 cells; experiment: Western blot analysis of cyclin D1 expression; assay type: cell-based, rat; conditions: 48 h, p < 0.01 vs control
Method: Cells were treated with Cur (0–20 μM) and DZG (0–200 μM) for 48 h. Cells were harvested for analysis of the cell cycle distribution by the Guava cycle (a,b), while cyclin D1 expression was determined by Western blot analysis (c,d). The level of protein expression was quantified by IMAGE J software. Data are presented as mean ± S.D. of three independent experiments. * p < 0.05 and ** p < 0.01 vs. control (one-way ANOVA, Dunnett’s multiple comparisons test, tested groups vs. control group). […]
Protein concentration was determined using the Bradford method (Thermo Fisher Scientific, Waltham, MA, USA). […]

PLS10 cells = tested on: PLS10 cells; set-up: method as in PMID 30499149; conditions: read-out: IC50 of Cur on PLS10 cells (previous study); cited from earlier work
[2] = intraperitoneal administration of 100 mg/kg; cited from earlier work
HT-29 cells = tested on: HT-29 cells; set-up: method as in PMID 23245566; conditions: cited from earlier work

Row | SMILES | cyclin D1 expression ([1]; 15 and 20 µM) | IC50 (PLS10 cells) | effect on serum aspartate aminotransferase, alanine transaminase, serum creatinine, blood urea and lactate dehydrogenase [2] | concentration range that suppressed proliferation of HT-29 cells (G2/M arrest) (HT-29 cells) | cyclin D1 expression ([1]; 150 and 200 µM)
1 | COc1cc(/C=C/C(=O)CC(=O)/C=C/c2ccc(O)c(OC)c2)ccc1O [Cur, Curcumin] | decreased | 26.5 ± 1.8 µM | – | – | –
2 | COc1cc(/C=C/C(C)=O)ccc1O [DZG, (E)-4-(4-hydroxy-3-methoxyphenyl)-but-3-en-2-one] | – | – | no effect | 250 to 500 µM | decreased
